Laboratory results from patent US4394503A, “Cephalosporin derivatives” (priority 1981, dated 1983).
Converted amounts (≈) assume the structure as drawn. Like-named read-outs stand apart in the source and are kept apart here.

Experiments:
[1] = system: Pr. morganii, Ent. cloacae and Ser. marcescens (Gn-II); assay: In vitro antibacterial activity, two-fold agar dilution, Mueller-Hinton agar (Table 1), group Gn-II; assay type: cell-based, Pr. morganii (1), Ent. cloacae (2) and Ser. marcescens (2); conditions: read-out: Geometric Mean of MIC
[2] = system: Penicillin-resistant S. aureus (Gp-Ib); assay: In vitro antibacterial activity, two-fold agar dilution, Mueller-Hinton agar (Table 1), group Gp-Ib; assay type: cell-based; conditions: Staphylococcus aureus; read-out: Geometric Mean of MIC
[3] = system: Penicillin-sensitive S. aureus (Gp-Ia); assay: In vitro antibacterial activity, two-fold agar dilution, Mueller-Hinton agar (Table 1), group Gp-Ia; assay type: cell-based; conditions: Staphylococcus aureus; read-out: Geometric Mean of MIC
[4] = system: Cephalothin-resistant E. coli and Kl. pneumoniae (Gn-Ib); assay: In vitro antibacterial activity, two-fold agar dilution, Mueller-Hinton agar (Table 1), group Gn-Ib; assay type: cell-based, E. coli (3) and Kl. pneumoniae (3); conditions: Escherichia coli, read-out: Geometric Mean of MIC
B. fragilis Group III = assay: In vitro antianaerobic activity in GAM agar (Table 4); assay type: cell-based; conditions: read-out: Geometric Mean of MIC
[5] = system: Cephalothin-sensitive E. coli, Kl. pneumoniae and Pr. mirabilis (Gn-Ia); assay: In vitro antibacterial activity, two-fold agar dilution, Mueller-Hinton agar (Table 1), group Gn-Ia; assay type: cell-based; conditions: read-out: Geometric Mean of MIC
B. fragilis Group I = assay: In vitro antianaerobic activity in GAM agar (Table 4); assay type: cell-based; conditions: Bacteroides fragilis
B. fragilis Group II = assay: as above; assay type: cell-based; conditions: Bacteroides fragilis; read-out: Geometric Mean of MIC
Ps. aeruginosa (Gn-III) = assay: In vitro antibacterial activity, two-fold agar dilution, Mueller-Hinton agar (Table 1), group Gn-III; assay type: cell-based; conditions: Pseudomonas aeruginosa; read-out: Geometric Mean of MIC
[6] = system: Others Group IV (C. difficile, C. perfringens, P. acne and P. anaerobius); assay: microbe, parasite or virus in culture; assay type: cell-based; conditions: read-out: Geometric Mean of MIC, GAM agar, 1 strain each

SMILES | MIC [1] [µg/mL] | MIC [2] [µg/mL] | MIC [3] [µg/mL] | MIC [4] [µg/mL] | MIC (B. fragilis Group III) [µg/mL] | MIC [5] [µg/mL] | MIC (B. fragilis Group I; read-out: Geometric Mean of MIC) [µg/mL] | MIC (B. fragilis Group II) [µg/mL] | MIC (Ps. aeruginosa (Gn-III)) [µg/mL] | MIC ([6]; Example 5 ceftazidime (mean of 2 experiments)) [µg/mL] | MIC (B. fragilis Group I; read-out: Geometric Mean of MIC, GAM agar, Example 4, ceftazidime (mean of 3 experiments), nonlactamase-producing, ampicillin-sensitive, 3 strains) [µg/mL] | MIC ([6]; Example 4, ceftazidime (mean of 3 experiments)) [µg/mL]
CC(C)Sc1cc[n+](CC2=C(C(=O)[O-])N3C(=O)C(NC(=O)/C(=N\OC(C)(C)C(=O)O)c4csc(N)n4)C3SC2)cc1 (centres unmarked) [Example 5, 7-[(Z)-2-(2-Aminothiazol-4-yl)-2-(2-carboxyprop-2-oxyimino)-acetamido]-3-[(4-isopropylthiopyridinium)methyl]-3-cephem-4-carboxylate] | 2.4 (≈ 3.87 µM) | 12.5 (≈ 20.1 µM) | 4.7 (≈ 7.57 µM) | 1 (≈ 1.61 µM) | > 100 | 0.11 (≈ 0.177 µM) | 3.2 (≈ 5.16 µM) | 25 (≈ 40.3 µM) | 12.5 (≈ 20.1 µM) | 3.5 (≈ 5.64 µM) |  | 
CSc1cccc[n+]1CC1=C(C(=O)[O-])N2C(=O)C(NC(=O)/C(=N\OC(C)(C)C(=O)O)c3csc(N)n3)C2SC1 (centres unmarked) [Example 3, 7-[(Z)-2-(2-Aminothiazol-4-yl)-2-(2-carboxyprop-2-oxyimino)-acetamido]-3-[(2-methylthiopyridinium)methyl]-3-cephem-4-carboxylate] | 3.2 (≈ 5.4 µM) | 12.5 (≈ 21.1 µM) | 9.5 (≈ 16 µM) | 2 (≈ 3.37 µM) |  | 0.11 (≈ 0.186 µM) |  |  | 5.6 (≈ 9.45 µM) |  |  | 
CCSc1cc[n+](CC2=C(C(=O)[O-])N3C(=O)C(NC(=O)/C(=N\OC(C)(C)C(=O)O)c4csc(N)n4)C3SC2)cc1 (centres unmarked) [Example 4, 7-[(Z)-2-(2-Aminothiazol-4-yl)-2-(2-carboxyprop-2-oxyimino)acetamido]-3-[(4-ethylthiopyridinium)methyl]-3-cephem-4-carboxylate] | 2.1 (≈ 3.46 µM) | 12.5 (≈ 20.6 µM) | 6.3 (≈ 10.4 µM) | 1.3 (≈ 2.14 µM) | 100 (≈ 165 µM) | 0.087 (≈ 0.143 µM) |  | 12.5 (≈ 20.6 µM) | 8.8 (≈ 14.5 µM) |  | 2.5 (≈ 4.12 µM) | 8.9 (≈ 14.7 µM)
